The assay relates to PC3 cells. Put plainly: NAMPT Cell Proliferation Assay. The settings on record: Homo sapiens, PC-3, 120 h, 5 days incubation, cell viability by Cell Titer Glo. Type of assay: cell-based. An outline of the steps: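 Seeded at 500 cells/well in RPMI with 10% heat-inactivated FBS and left to attach overnight at 37° C, 5% CO2. Compounds were added as 10-fold dilutions […] for 5 days, then viability was read by CellTiter-Glo. IC50s came from sigmoidal fits of percent inhibition.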

Molecules are shown by their SMILES.

Usually IC50 stands for the concentration at which inhibition is half-maximal. Read a high IC50 as weaker potency in that assay. Compound `CSCCC(=O)N1CCC(c2ccc(NC(=O)[C@H]3CCN(c4cccnn4)C3)cc2)CC1` [Example 715, (3S)-N-(4-{1-[3-(methylsulfanyl)propanoyl]piperidin-4-yl}phenyl)-1-(pyridazin-3-yl)pyrrolidine-3-carboxamide] had an IC50 of 11.8 nM. In other words, the double-digit nanomolar range.
In the case of `CC(=O)N1CCC(C(=O)N2CCC(c3ccc(NC(=O)[C@H]4CCN(c5cccnn5)C4)cc3)CC2)CC1` [Example 716, (3S)-N-(4-{1-[(1-acetylpiperidin-4-yl)carbonyl]piperidin-4-yl}phenyl)-1-(pyridazin-3-yl)pyrrolidine-3-carboxamide] it was 69.2 nM.
In the case of `C=CCC(=O)N1CCC(c2ccc(NC(=O)[C@H]3CCN(c4cccnn4)C3)cc2)CC1` [Example 717, (3S)-N-{4-[1-(but-3-enoyl)piperidin-4-yl]phenyl}-1-(pyridazin-3-yl)pyrrolidine-3-carboxamide] it was 12.1 nM.
In the case of `CCC(C)(C)C(=O)N1CCC(c2ccc(NC(=O)[C@H]3CCN(c4cccnn4)C3)cc2)CC1` [Example 718, (3S)-N-{4-[1-(2,2-dimethylbutanoyl)piperidin-4-yl]phenyl}-1-(pyridazin-3-yl)pyrrolidine-3-carboxamide] it was 6.27 nM; in that of `Cc1ccc(C(=O)N2CCC(c3ccc(NC(=O)[C@H]4CCN(c5cccnn5)C4)cc3)CC2)cc1F` [Example 719, (3S)-N-{4-[1-(3-fluoro-4-methylbenzoyl)piperidin-4-yl]phenyl}-1-(pyridazin-3-yl)pyrrolidine-3-carboxamide], 9.63 nM; in that of `COc1cccc(C(=O)N2CCC(c3ccc(NC(=O)[C@H]4CCN(c5cccnn5)C4)cc3)CC2)c1` [Example 720, (3S)-N-{4-[1-(3-methoxybenzoyl)piperidin-4-yl]phenyl}-1-(pyridazin-3-yl)pyrrolidine-3-carboxamide], 8.57 nM.
As for `O=C(Nc1ccc(C2CCN(C(=O)Cc3ccccc3Cl)CC2)cc1)[C@H]1CCN(c2cccnn2)C1` [Example 721, (3S)-N-(4-{1-[(2-chlorophenyl)acetyl]piperidin-4-yl}phenyl)-1-(pyridazin-3-yl)pyrrolidine-3-carboxamide], the IC50 is 8.39 nM.
`COCCOCC(=O)N1CCC(c2ccc(NC(=O)[C@H]3CCN(c4cccnn4)C3)cc2)CC1` [Example 722, (3S)-N-(4-{1-[(2-methoxyethoxy)acetyl]piperidin-4-yl}phenyl)-1-(pyridazin-3-yl)pyrrolidine-3-carboxamide] yielded an IC50 of 84.8 nM.
Next, `CC(C)(C)CC(=O)N1CCC(c2ccc(NC(=O)[C@H]3CCN(c4cccnn4)C3)cc2)CC1` [Example 723, (3S)-N-{4-[1-(3,3-dimethylbutanoyl)piperidin-4-yl]phenyl}-1-(pyridazin-3-yl)pyrrolidine-3-carboxamide]: 3.51 nM; `CC(=O)N[C@@H](CC(C)C)C(=O)N1CCC(c2ccc(NC(=O)[C@H]3CCN(c4cccnn4)C3)cc2)CC1` [Example 724, (3S)-N-{4-[1-(N-acetyl-L-leucyl)piperidin-4-yl]phenyl}-1-(pyridazin-3-yl)pyrrolidine-3-carboxamide]: 80.9 nM; `O=C(Nc1ccc(C2CCN(C(=O)c3cccc(F)c3)CC2)cc1)[C@H]1CCN(c2cccnn2)C1` [Example 725, (3S)-N-{4-[1-(3-fluorobenzoyl)piperidin-4-yl]phenyl}-1-(pyridazin-3-yl)pyrrolidine-3-carboxamide]: 4.01 nM.
Next, `N#Cc1ccc(C(=O)N2CCC(c3ccc(NC(=O)[C@H]4CCN(c5cccnn5)C4)cc3)CC2)cc1` [Example 726, (3S)-N-{4-[1-(4-cyanobenzoyl)piperidin-4-yl]phenyl}-1-(pyridazin-3-yl)pyrrolidine-3-carboxamide]: 32.7 nM; `COc1ccccc1C(=O)N1CCC(c2ccc(NC(=O)[C@H]3CCN(c4cccnn4)C3)cc2)CC1` [Example 727, (3S)-N-{4-[1-(2-methoxybenzoyl)piperidin-4-yl]phenyl}-1-(pyridazin-3-yl)pyrrolidine-3-carboxamide]: 4.6 nM.

These data come from patent publication US20130303509A1, “NAMPT INHIBITORS” (AbbVie Inc., priority 2012, published 2013).
